Data as given in ChEMBL document CHEMBL5042522, “One- and Two-Photon Uncaging of Carbon Monoxide (CO) with Real-Time Monitoring: On-Demand Carbazole-Based Dual CO-Releasing Platform to Test over Single and Combinatorial Approaches for the Efficient Regression of Orthotopic Murine Melanoma In Vivo” (J Med Chem, 2022).

Tests used:
[1] = Stability of compound in PBS buffer at pH 7.4 at 100 uM incubated for 72 hrs under dark condition in presence of cysteine by Reverse-phase HPLC analysis; format: physicochemical; conditions: read-out: Stability
B16-F10 [2] = assay: Cytotoxicity against mouse B16-F10 cells assessed as cell viability at 1.25 to 10 uM irradiated with >= 365 nm Hg lamp for 5 mins after 6 hrs post-treatment and further incubated for 72 hrs by MTT assay; format: functional; conditions: dose 1.25-10 µM, time 78 hrs
[3] = Drug uptake in mouse B16-F10 cells assessed as drug internalization by measuring blue fluorescence at 20 uM incubated for 4 hrs followed by propidium iodide staining based confocal laser scanning microscopy; format: ADME, cell-based; conditions: b16-f10, 4 h
[4] = Stability of compound in PBS buffer at pH 7.4 at 100 uM incubated for 72 hrs under dark condition by RP-HPLC analysis; format: physicochemical; conditions: read-out: Stability
B16-F10 [5] = assay: Photorelease activity in mouse B16-F10 cells assessed as uncaging of active molecules of drug by measuring green fluorescence at 20 uM incubated for 4 hrs irradiated with >= 365 nm Hg lamp for 5 mins and further incubated for 4 hrs by propidium iodide staining based confocal laser scanning microscopy; format: functional, cell-based; conditions: time 8.0 hrs
[6] = Photolysis of compound in PBS buffer at pH 7.4 assessed as compound decomposition by measuring final photoproduct formation at 0.1 mM irradiated with >= 365 nm for 60 mins by RP-HPLC analysis; format: physicochemical; conditions: pH 7.4, 1 h, 100 µM
[7] = Photorelease ability in PBS buffer at pH 7.4 assessed as fast uncaging of CO at 100 uM irradiated with >= 365 nm Hg lamp for 60 mins by RP-HPLC analysis; format: physicochemical; conditions: pH 7.4, 1 h
[8] = Photorelease activity in PBS buffer at pH 7.4 assessed as release of CO using 3',6'-Bis(allyloxy)-3H-spiro(isobenzofuran-1,9'-xanthen)-3-one fluorescent probe at 500 uM irradiated with >= 365 nm Hg lamp for 30 mins in presence of PdCl2 by absorption spectroscopy; format: physicochemical; conditions: pH 7.4, 0.5 h
[9] = Photorelease ability in PBS buffer at pH 7.4 assessed as compound decomposition by measuring 1-(9-ethyl-9H-carbazol-3-y1)-2,2-dihydroxyethan-l-one photoproduct formation at 100 uM measured upto 5.5 mins of irradiation with >= 365 nm Hg lamp by RP-HPLC analysis followed by 1H-NMR analysis; format: physicochemical; conditions: pH 7.4, 5.5 min
[10] = Photorelease ability in CDCl3 assessed as compound decomposition by measuring (2,2'-(9-ethy1-9H-carbazole-3,6-chyl)bis(2-oxoacetaldehyde) photoproduct formation at 100 uM measured after 20 mins of irradiation with >= 365 nm Hg lamp by 1H-NMR spectroscopy; format: physicochemical
[11] = Photolysis of compound in PBS buffer at pH 7.4 assessed as compound decomposition by measuring final photoproduct formation at 0.1 mM irradiated with >= 365 nm for 20 mins by RP-HPLC analysis; format: physicochemical; conditions: pH 7.4, 20 min, 100 µM
[12] = Photorelease ability in PBS buffer at pH 7.4 assessed as compound decomposition at 100 uM irradiated with >= 365 nm Hg lamp upto 30 mins by UV absorption spectroscopy; format: physicochemical; conditions: read-out: Drug degradation
B16-F10 [13] = assay: Cytotoxicity against mouse B16-F10 cells assessed as cell viability at 10 uM irradiated with >= 365 nm Hg lamp for 5 mins after 6 hrs post-treatment and further incubated for 72 hrs by MTT assay; format: functional; conditions: B16-F10, light or radiation study, time 78 hrs, read-out: Activity

Structure (SMILES)	remaining at 72 h, 100 µM [1]	Activity (B16-F10 [2])	Drug uptake [3]	remaining at 72 h, 100 µM [4]	Drug metabolism (B16-F10 [5])	Drug degradation [6]	Drug metabolism [7]	Drug metabolism [8]	Drug degradation [9]	Drug degradation [10]	Drug degradation [11]	degraded at 0.5 h, 100 µM [12]	viability at 10 µM (B16-F10 [13])
CCn1c2ccc(C(=O)COC(=O)CCCc3ccc(N(CCCl)CCCl)cc3)cc2c2cc(-c3coc(=O)o3)ccc21	93%	35%	Active	96%	100%	88%	Active	5.7 ppm					
CCn1c2ccccc2c2cc(-c3coc(=O)o3)ccc21	87%	70%	Active	96%	100%			5.9 ppm	100%	100%	93%		
CCn1c2ccc(C(=O)C(O)O)cc2c2cc(-c3coc(=O)o3)ccc21												100%	
O=C(O)CCCc1ccc(N(CCCl)CCCl)cc1 [CHLORAMBUCIL]													80%
